Measured values taken from patent US20230104800A1, “COMBINATION THERAPIES AND BIOMARKERS FOR TREATING CANCER” (priority 2020, published 2023).

System: SHEP-MYCN-ER cells
Assay: FUCCI high-content live-cell imaging of cell cycle-related cell-killing activity
Type: cell-based, Human
Conditions: neuroblastoma SHEP-MYCN-ER cells with 200 nM 4-OHT (high MYCN), PC-002: 10 nM YM155, CHOP: 2 μM cyclophosphamide, 0.2 μM Doxorubicin, 8 nM vincristine, imaged every 20 min for 72 h
Method: Cultures were incubated at 37° C. in 5% CO2.
Mix each FUCCI Premo™ reagent (Thermo fisher, P36237) by inversion to ensure a homogenous solution. Add the mixed reagent to the SHEP-MYCN-ER cells in complete cell medium and mix gently. Return the cells to the culture incubator for over 16 hour.
High-content live-cell imaging analysis. After transfection, SHEP-MYCN-ER cells were incubated in complete cell medium with concentration indicated of different drugs (PC-002: 10 nM YM155, CHOP: 2 μM cyclophosphamide; 0.2 μM Doxorubicin; 8 nM vincristine). Cells were grown in Array Scan™ Live Cell Module and imaged every 20 min for 72 h under controlled growth conditions (CellInsight™ CX5 High-Content Screening (HSC) Platform, Thermo Fisher; Array Scan™ Live Cell Module, Thermo Fisher).
In the G1 phase of the cell cycle, geminin is broken down and only Cdtl tagged with RFP may be visualized, thus identifying cells in the G1 phase with red fluorescent nuclei. In the S, G2, and M phases, however, Cdt1 is degraded and only geminin tagged with GFP remains, thus identifying cells in these phases with green fluorescent nuclei. During the G1/S transition, both proteins are present in the cells, allowing GFP and RFP fluorescence to be observed—when green and red images are overlaid, the cells appear with yellow (orange) fluorescent nuclei. The dynamic color change from red-to-yellow, yellow-to-green or green-to-red represents the progression through cell cycle (live). The cell dead without color change represents the sensitivity to the drug (death).

## 1-(2-Methoxyethyl)-2-methyl-4,9-dioxo-3-(pyrazin-2-ylmethyl)-4,9-dihydro-1H-naphtho[2,3-d] imidazolium bromide [YM155]
FIG. 6A
  cancer cell-killing activity in the G1 phase of the cell cycle (dead vs live cells): not significantly
FIG. 6B
  cancer cell-killing activity in the S/G2 phase of the cell cycle (dead vs live cells): predominantly
FIG. 6C
  cancer cell-killing activity in the M phase of the cell cycle (dead vs live cells): not significantly
